Measurements taken from article PMC7160333, “Physiological Role of Glutamate Dehydrogenase in Cancer Cells” (Frontiers in Oncology, 2020).
Read-outs that look alike come from different tables or passages of the source. Values belong to the compound of their own block, whether it stands above or below them.

Assays:
[1] = system: mammalian liver and brain GDHs; parameters: method as in PMID 3701332, PMID 7588764, PMID 7190024, PMID 4052048, PMID 1366782; details: cited from earlier work
GDH1 = GDH1 (Rattus norvegicus, UniProt P10860); assay: Effect of Mg2+ and spermidine on GDH1 activity; format: biochemical
Procedure: (§2) The decrease in the absorbance at 340 nm was followed for several minutes (~10 min) to allow for full development of the pronounced enzyme hysteretic behavior, although the initial signal decrease (1–3 min) was taken to calculate the GDH rates. The protein concentration ranges used for each mitochondrial type were well within the linearity range of enzyme activity. To calculate the kinetic parameters, the experimental data were fitted by non-linear regression analysis to the Hill or MWC equation, using the Microcal Origin 5.0 software (OriginLab, Northampton, MA, USA).

HepM GDH1 = HepM GDH1 (Rattus norvegicus, UniProt P10860); assay: GDH reverse (aminating) reaction activity in hepatoma mitochondria (HepM); format: biochemical; details: for EC50: Hill equation; for Ki: saturating ADP, read-out: Ki GTP; for Vmax at given ADP concentration: HepM GDH, pH 7.50, 37°C, 280 μg protein, MWC fit, representative experiment
Procedure: (§1) Tightly coupled mitochondria were isolated from fed-rat liver (RLM) and AS-30D cells (HepM) as described elsewhere ([89], [90]). […] The resulting mitochondrial fractions were resuspended at 30 to 80 mg protein/mL in SHE buffer with 1 mM PMSF, 1 mM EDTA, 5 mM DTT, and 10% glycerol, and stored at −70°C until use for determination of enzyme activity and Western blotting.

RLM GDH1 = RLM GDH1 (Rattus norvegicus, UniProt P10860); assay: GDH reverse (aminating) reaction activity in rat liver mitochondria (RLM); format: biochemical; details: for EC50: Hill equation; for Ki: saturating ADP, read-out: Ki GTP; for Vmax at given ADP concentration: RLM GDH, pH 7.50, 37°C, 90 μg protein, MWC fit, representative experiment
Procedure: as §1

[2] = system: prostate cancer, renal cancer, and leukemia cell lines; parameters: method as in PMID 1372534, PMID 12820434; details: cited from earlier work
[3] = system: recombinant human GDH isoforms (GDH1 and GDH2), bovine liver GDH, Ox brain GDH, dogfish liver GDH, rat brain GDH, and bovine brain GDH isoforms; parameters: method as in PMID 4381532, PMID 7588764, PMID 17924438, PMID 23420347, PMID 7190024; details: pH range of 7.4–8.7, cited from earlier work
tumors = system: tumors; parameters: method as in PMID 10071293; details: clinical trials; cited from earlier work
GDH in HepM and RLM = GDH in HepM and RLM (Rattus norvegicus, UniProt P10860); assay: GDH reverse reaction kinetics, summary statements for HepM and RLM; format: biochemical; details: summary of Table 2
Sequence of GDH in HepM and RLM (P10860 54-558): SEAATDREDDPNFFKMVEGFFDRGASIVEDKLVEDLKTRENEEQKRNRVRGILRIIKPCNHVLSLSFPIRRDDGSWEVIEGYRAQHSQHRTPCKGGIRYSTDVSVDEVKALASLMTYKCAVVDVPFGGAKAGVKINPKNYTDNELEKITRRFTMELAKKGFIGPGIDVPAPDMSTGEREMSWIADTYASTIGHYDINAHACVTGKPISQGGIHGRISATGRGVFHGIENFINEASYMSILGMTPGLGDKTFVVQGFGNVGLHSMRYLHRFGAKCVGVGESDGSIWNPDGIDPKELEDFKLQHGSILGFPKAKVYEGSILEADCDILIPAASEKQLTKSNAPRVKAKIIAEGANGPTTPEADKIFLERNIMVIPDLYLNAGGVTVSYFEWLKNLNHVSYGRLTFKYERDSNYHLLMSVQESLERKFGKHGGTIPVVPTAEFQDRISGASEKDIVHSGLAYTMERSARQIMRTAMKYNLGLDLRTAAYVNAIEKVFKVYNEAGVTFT
Procedure: as §2

Sequence of RLM GDH1 (P10860 54-558): as above
Sequence of HepM GDH1 (P10860 54-558): as above
Sequence of GDH1 (P10860 54-558): as above

Compound: NC(=O)c1ccc[n+]([C@@H]2O[C@H](COP(=O)([O-])OP(=O)(O)OC[C@H]3O[C@@H](n4cnc5c(N)ncnc54)[C@H](OP(=O)(O)O)[C@@H]3O)[C@@H](O)[C@H]2O)c1 [NADP^+]
Km [1]: 160 to 1220 µM

Effect on GDH activity (GDH1; spermidine 0–5 mM, data not shown): innocuous | inhibition at 20000 µM (GDH1; spermidine 20 mM, data not shown, read-out: Inhibition of GDH activity): 20%
Compound: NCCCCNCCCN [Spermidine]

nH (Hill coefficient) for Leu (HepM GDH1; HepM, pH 7.2, Hill equation): 2.8 | EC50 (HepM GDH1; HepM, pH 7.2, activator, read-out: K0.5 Leu): 2600 µM | nH (Hill coefficient) for Leu (RLM GDH1; RLM, pH 7.2, Hill equation): 2.75 | EC50 (RLM GDH1; RLM, pH 7.2, activator, read-out: K0.5 Leu): 3900 µM
Compound: CC(C)C[C@H](N)C(=O)O [Leu, L-leucine]

Compound: O=C(O)CCCc1ccccc1 [Phenylbutyrate, phenylbutyrate]
Growth of cell lines [2]: arrests growth

Km (HepM GDH1; read-out: Km NADPH, HepM, pH 7.2, Michaelis–Menten): 46 ± 14 µM | Km (HepM GDH1; read-out: Km NADPH, HepM, pH 7.5, Michaelis–Menten): 109 ± 4 µM | Km (RLM GDH1; read-out: Km NADPH, RLM, pH 7.5, Michaelis–Menten): 133 ± 28 µM
Compound: NC(=O)C1=CN([C@@H]2O[C@H](COP(=O)(O)OP(=O)(O)OC[C@H]3O[C@@H](n4cnc5c(N)ncnc54)[C@H](OP(=O)(O)O)[C@@H]3O)[C@@H](O)[C@H]2O)C=CC1 [NADPH]
Km ([3]; read-out: Km NADPH): 20 to 120 µM | Km [1]: 22 to 120 µM

Compound: NC(=O)c1ccc[n+]([C@@H]2O[C@H](COP(=O)([O-])OP(=O)(O)OC[C@H]3O[C@@H](n4cnc5c(N)ncnc54)[C@H](O)[C@@H]3O)[C@@H](O)[C@H]2O)c1 [NAD^+]
Km [1]: 170 to 830 µM

Compound: O=C(O)CCC(=O)C(=O)O [2-OG, 2-oxoglutarate]
Km (HepM GDH1; HepM, pH 7.2, Michaelis–Menten, read-out: Km 2-OG): 442 ± 160 µM | Km (HepM GDH1; HepM, pH 7.5, Michaelis–Menten, read-out: Km 2-OG): 733 ± 325 µM | Km (RLM GDH1; RLM, pH 7.2, Michaelis–Menten, read-out: Km 2-OG): 371 ± 232 µM | Km (RLM GDH1; RLM, pH 7.5, Michaelis–Menten, read-out: Km 2-OG): 396 ± 75 µM | Km ([3]; read-out: Km 2OG): 470 to 4500 µM

Compound: O=C(O)Cc1ccccc1 [phenylacetate]
Antitumor activity (tumors): negligible antitumor activity | Growth of cell lines [2]: arrests growth

Effect on GDH1 activity (GDH1; 0- to 0.4-mM added MgCl2): not affected | Inhibition of GDH1 activity (GDH1; 1 mM Mg^2+): < 10% | Inhibition of GDH1 activity (GDH1; 2 mM Mg^2+): ~ 20%
Compound: [Cl-].[Cl-].[Mg+2] [Mg^2+, MgCl2]

Ki (HepM GDH1; HepM, pH 7.2, MWC equation): 28 ± 27 µM | IC50 (HepM GDH1; HepM, pH 7.2, reverse reaction): 114 ± 29 µM | Ki (HepM GDH1; HepM, pH 7.5, MWC equation): 64 ± 59 µM | Ki (RLM GDH1; RLM, pH 7.2, MWC equation): 60 ± 10 µM | IC50 (RLM GDH1; RLM, pH 7.2, reverse reaction): 139 ± 21 µM | Ki (RLM GDH1; RLM, pH 7.5, MWC equation): 31.7 ± 7 µM | IC50 (RLM GDH1; RLM, pH 7.5, reverse reaction): 244 µM
Compound: Nc1nc2c(ncn2[C@@H]2O[C@H](COP(=O)(O)OP(=O)(O)OP(=O)(O)O)[C@@H](O)[C@H]2O)c(=O)[nH]1 [GTP]

Compound: NC(=O)C1=CN([C@@H]2O[C@H](COP(=O)(O)OP(=O)(O)OC[C@H]3O[C@@H](n4cnc5c(N)ncnc54)[C@H](O)[C@@H]3O)[C@@H](O)[C@H]2O)C=CC1 [NADH]
Km [1]: 28 to 120 µM

Vmax at given ADP concentration (HepM GDH1; 0.13 mM ADP): 0.037 ± 0.009 ΔAbs/min | Vmax at given ADP concentration (HepM GDH1; 0.5 mM ADP): 0.153 ± 0.008 ΔAbs/min | Vmax at given ADP concentration (HepM GDH1; 1.5 mM ADP): 0.193 ± 0.011 ΔAbs/min | Vmax at given ADP concentration (HepM GDH1; […] ADP): 0.099 ± 0.010 ΔAbs/min | nH (Hill coefficient) for ADP (HepM GDH1; HepM, pH 7.2, Hill equation): 2.77 ± 0.7 | Ka ADP (activation constant) (HepM GDH1; HepM, pH 7.2, MWC equation): 0.42 ± 0.26 (3) mM | EC50 (HepM GDH1; HepM, pH 7.2, allosteric activator, read-out: K0.5 ADP): 564 ± 167 µM | nH (Hill coefficient) for ADP (HepM GDH1; HepM, pH 7.5, Hill equation): 2.6 ± 0.4 | Ka ADP (activation constant) (HepM GDH1; HepM, pH 7.5, MWC equation): 0.44 ± 0.37 (3) mM | EC50 (HepM GDH1; HepM, pH 7.5, allosteric activator, read-out: K0.5 ADP): 281 ± 134 µM | Vmax at given ADP concentration (RLM GDH1; 0.25 mM ADP): 0.131 ± 0.113 ΔAbs/min | Vmax at given ADP concentration (RLM GDH1; 0.75 mM ADP): 0.295 ± 0.022 ΔAbs/min | Vmax at given ADP concentration (RLM GDH1; 2.1 mM ADP): 0.367 ± 0.024 ΔAbs/min | nH (Hill coefficient) for ADP (RLM GDH1; RLM, pH 7.2, Hill equation): 2.4 ± 0.3 | Ka ADP (activation constant) (RLM GDH1; RLM, pH 7.2, MWC equation): 0.51 ± 0.14 (5) mM | EC50 (RLM GDH1; RLM, pH 7.2, allosteric activator, read-out: K0.5 ADP): 567 ± 125 µM | nH (Hill coefficient) for ADP (RLM GDH1; RLM, pH 7.5, Hill equation): 2.34 | Ka ADP (activation constant) (RLM GDH1; RLM, pH 7.5, MWC equation): 0.11 ± 0.14 (4) mM | EC50 (RLM GDH1; RLM, pH 7.5, allosteric activator, read-out: K0.5 ADP): 285 µM | Hill coefficient (nH) when varying ADP (GDH in HepM and RLM): 2.3–2.8
Compound: Nc1ncnc2c1ncn2[C@@H]1O[C@H](COP(=O)(O)OP(=O)(O)O)[C@@H](O)[C@H]1O [ADP]
